This note sets out measurements from patent publication US20030221207A1, “Cardiac-specific 11beta hydroxysteroid dehydrogenase type 2 transgenic mice” (Pharmacia Corporation, Global Patent Department, priority 2002, published 2003).

This assay has as its system 11βhsd2 cardiac-specific transgenic mice. Nature of the assay: Eplerenone treatment of 11βhsd2 cardiac-specific transgenic mice, echocardiography. Type of assay: in vivo, mouse. The note with it: male transgenic mice, chow containing eplerenone approx. 200 mg/kg/day from 4 weeks of age. As for the experimental part:
Starting at 4 weeks of age male transgenic mice were supplied with either chow containing eplerenone (approximate dose of 200 mg/kg/day) to eat or normal chow.
Echocardiograms were acquired using a Sonos 5500 echocardiographic system equipped with a 15-MHz linear-array transducer (Agilent, Andover, Mass.). Images were obtained from mice lightly anesthetized with 1-2% isoflurane (AErrane; Baxter, Inc., Deerfield, Ill.) lying in the left lateral decubitus position. Care was taken to maintain adequate contact while avoiding excessive pressure on the chest wall. Two-dimensional parasternal long and short-axis images of the left ventricle were obtained. Two-dimensional targeted M-mode tracings were recorded from the parasternal short-axis view at the level of the papillary muscles at a sweep speed of 150 mm/s. All echocardiograms were recorded digitally on a rewritable magneto-optical disk. Measurements and calculations used are as follows: Left Ventricular End diastolic (EDV) and systolic (ESV) volumes were calculated via the method of discs from direct measurement systolic (LVAs) and diastolic (LVAd) areas. Ejection Fraction (EF) was calculated from systolic and diastolic volumes with the following formula: EF=(EDV−ESV)/EDV×100. […] Heart rate (HR) was calculated by measuring the R-R interval in M-mode and using the formula: HR=60(sec/min)/R-R interval(sec/beat). […]

Each structure is given as a SMILES string.

For the molecule `COC(=O)[C@@H]1CC2=CC(=O)CC[C@]2(C)[C@@]23O[C@@H]2C[C@@]2(C)[C@@H](CC[C@@]24CCC(=O)O4)[C@H]13` [eplerenone], where the note is “2.5 months of treatment”, the “development of left ventricular dysfunction and heart failure” value was “significantly attenuated”. Besides, where the note is “after 2.5 months of treatment, versus normal chow”, the myocardial function result is listed as “significantly improved”.
